Measurements taken from ChEMBL document CHEMBL2057202, “Investigation of substituted 6-aminohexanoates as skin penetration enhancers” (Bioorg Med Chem, 2012).
pIC50: −log10 of the molar value.

Experiments:
[1] = Lipophilicity, log K of the compound by RP-HPLC analysis; format: physicochemical
SK-N-MC = experiment: Antiproliferative activity against human SK-N-MC cells after 72 hrs by MTT assay; format: cell-based
[2] = Potentiation of theophylline transdermal permeation in pig ear skin assessed as enhancement ratio at 20 mg after 24 hrs by Franz diffusion cell method; format: ADME, Sus scrofa

SMILES | log K [1] | pIC50 (SK-N-MC) | Ratio [2]
CCCCCCOC(=O)C(CCCCN1C(=O)CCC1=O)N1CCCCCC1=O (stereo unspecified) | -0.0764 | < 5.20 | 1.93
CCCCCCCCOC(=O)C(CCCCN1C(=O)CCC1=O)N1CCCCCC1=O (stereo unspecified) | 0.2462 | < 5.20 | 2.24
CCCCCCCOC(=O)CCCCCN1C(=O)CCC1=O | 0.15 | < 5.20 | 2.64
CCCCCCCCCCCOC(=O)C(CCCCN1C(=O)CCC1=O)N1CCCCCC1=O (stereo unspecified) | 0.7462 | < 5.20 | 1.81
CCCCCCCC/C=C\CCCCCCCC(=O)O [OLEIC ACID] | – | – | 1.13
CCCCCCCCCOC(=O)CCCCCN1C(=O)CCC1=O | 0.4901 | < 5.20 | 3.14
CCCCCCCCCOC(=O)C(CCCCN1C(=O)CCC1=O)N1CCCCCC1=O (stereo unspecified) | 0.4095 | < 5.20 | 1.87
CCCCCCOC(=O)CCCCCN1C(=O)CCC1=O | -0.0201 | < 5.20 | 2.71
CCCCCCCCCCCCOC(=O)CCCCCN1C(=O)CCC1=O | 1.0091 | < 5.20 | 2.93
CCCCCCCCCCOC(=O)CCCCCN1C(=O)CCC1=O | 0.6548 | < 5.20 | 3.54
CCCCCCCCCCCCOC(=O)C(CCCCN1C(=O)CCC1=O)N1CCCCCC1=O (stereo unspecified) | 0.9081 | < 5.20 | 2.48
CCCCCCCCCCOC(=O)C(CCCCN1C(=O)CCC1=O)N1CCCCCC1=O (stereo unspecified) | 0.6158 | < 5.20 | –
CCCCCCCOC(=O)C(CCCCN1C(=O)CCC1=O)N1CCCCCC1=O (stereo unspecified) | 0.0658 | < 5.20 | –
CCCCCCCCCCCOC(=O)CCCCCN1C(=O)CCC1=O | 0.8368 | < 5.20 | 3.51
CCCCCCCCOC(=O)CCCCCN1C(=O)CCC1=O | 0.3239 | < 5.20 | 2.55
